Data on one compound can be found in PMC5354814, “In silico and in vitro drug screening identifies new therapeutic approaches for Ewing sarcoma” (Oncotarget, 2016).

What is called IC50 is the concentration that gives 50% inhibition.

The subject of one data set is rat lung. Details: method as in ref 19 (a number printed in a supplementary file, which may have a reference list of its own: not looked up in the article's list). As to conditions: 1.5 x 10^-4M; cited from earlier work.
Another data set deals with human lymphocyte. More on the design: method as in ref 19 (a number printed in a supplementary file, which may have a reference list of its own: not looked up in the article's list). As to conditions: 0.1 - 1.0 µg auranofin/mL; cited from earlier work.
Details of data set [1]: method as in ref 19 (a number printed in a supplementary file, which may have a reference list of its own: not looked up in the article's list). As to conditions: 5 and 10 µg gold/kg for 2 weeks; cited from earlier work.
Details of data set [2]: method as in ref 19 (a number printed in a supplementary file, which may have a reference list of its own: not looked up in the article's list). Conditions: intravenous, 20 mg auranofin/kg; cited from earlier work.
Another data set concerns SK-ES-1. As to the kind of experiment: Hits validation, dose-response cell proliferation (CellTiter-Glo). Type of data set: cell-based. As to conditions: 12-point dose-response 50 μmol/L to 1 nmol/L, mean ± SD. The method, boiled down: (§1)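 Dose-response proliferation test: drugs spanning 1 nmol/L–50 μmol/L were added one day after seeding 750–1,500 cells per well. CellTiter-Glo signal gave IC50s.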

Another data set has as its system RD-ES. The description is as above. Type of data set: cell-based. Conditions: 12-point dose-response 50 μmol/L to 1 nmol/L, mean ± SD. Summed up: as §1
The subject of the next data set is A673. The description is as above. Format: cell-based. As to conditions: 12-point dose-response 50 μmol/L to 1 nmol/L, mean ± SD. The method, boiled down:
as §1

The next data set concerns Hs 863.T. The data set is described as above. As to conditions: control cell line, 12-point dose-response, mean ± SD. Format: cell-based. The method, boiled down:
as §1

The test system of a further data set is TC-71. The data set is described as above. Conditions: 12-point dose-response 50 μmol/L to 1 nmol/L, mean ± SD. Type of data set: cell-based. Summed up: as §1
The subject of a further data set is COG-E-352. The description is as above. Format: cell-based. Conditions: 12-point dose-response 50 μmol/L to 1 nmol/L, mean ± SD. The method, boiled down: as §1
In the next data set the test system is CHLA-258. Described as above. Type of data set: cell-based. Conditions: 12-point dose-response 50 μmol/L to 1 nmol/L, mean ± SD. Summed up: as §1
Details of data set [3]: method as in ref 18, ref 19. Conditions: cited from earlier work.
A short description of data set [4]: Other animal xenograft models, oral auranofin. Format: in vivo. As to conditions: unpublished data. The text has this: As previously reported, Ridaura® was first developed for the management of rheumatoid arthritis as a disease-modifying anti-rheumatic drug (DMARD). However, the adverse effects and the concerns about the long-term consequences of the immunosuppression induced by Ridaura® led to the decline in its use. […] Therefore, we sought to determine if altering the route of delivery could replicate the dramatic in vitro anticancer activity and improve its efficacy in vivo. Previous studies have shown that orally delivered auranofin is rapidly metabolized and intact auranofin has never been detected in the blood. Thus, studies of the pharmacokinetics of auranofin have involved measurement of gold concentrations. Upon oral administration, 25% of auranofin gets absorbed.

The next data set has as its system human lymphocytes. More on the design: method as in ref 19 (a number printed in a supplementary file, which may have a reference list of its own: not looked up in the article's list). Conditions: 1.25 µg auranofin/mL; cited from earlier work.
Another data set has as its system platelet. More on the design: method as in ref 19 (a number printed in a supplementary file, which may have a reference list of its own: not looked up in the article's list). As to conditions: 10 µg/mL; cited from earlier work.
On the set-up of data set [5]: method as in ref 19 (a number printed in a supplementary file, which may have a reference list of its own: not looked up in the article's list). As to conditions: dogs, cited from earlier work.
Another data set deals with natural killer cells. Details: method as in ref 19 (a number printed in a supplementary file, which may have a reference list of its own: not looked up in the article's list). As to conditions: cited from earlier work.
On the set-up of data set [6]: method as in ref 19 (a number printed in a supplementary file, which may have a reference list of its own: not looked up in the article's list). Conditions: cited from earlier work.
Details of data set [7]: method as in ref 19 (a number printed in a supplementary file, which may have a reference list of its own: not looked up in the article's list). As to conditions: rats, 2 - 40 mg auranofin/kg p.o.; cited from earlier work.

Read-outs that look alike come from different tables or passages of the source.

On to `CC(=O)OC[C@H]1O[C@@H]([S-])[C@H](OC(C)=O)[C@@H](OC(C)=O)[C@@H]1OC(C)=O.CCP(CC)CC.[Au+]` [Auranofin, auranofin], for which the “ovalbumin antigen-induced release of histamine” value with rat lung is “inhibition”. Besides, the phytohemagglutinin-induced mitogenesis entry in the data set on human lymphocyte is “inhibited”. For the same compound, the “hemagglutinating IgG antibodies to SRBC and antibodies to mouse fibroblasts” value in [1] is listed as “suppressed”. In [2], the “48-hour passive cutaneous anaphylaxis” value was “inhibition”. The IC50 in the data set on SK-ES-1 amounted to 80 nM; in the data set on RD-ES, 2450 ± 520 nM; in the data set with A673 it was 330 ± 220 nM; with Hs 863.T. it was 3250 ± 120 nM; with TC-71, 260 ± 140 nM; in the data set with COG-E-352, 820 ± 190 nM. In addition, in the data set with CHLA-258, the half-maximal inhibitory concentration (IC50) was found to be 380 ± 190 nM. In addition, in [3], the mutation effects result is “no m utation effects”. Further, the “efficacy when given orally” value in [4] is given as “not effective”. Also, the “ADCC of human lymphocytes” value in the data set with human lymphocytes is “reduced”. The “epinephrine-, ADP-, or collagen-induced platelet aggregation” value in the data set with platelet is “potent”. Besides, the “chronic toxicity, anemia in middle and high dose groups” value in data set [5] (oral 0.6, 1.2 and 2.4-6.0 mg/kg/day, 12 months) is recorded as “intravascular hemolytic anemia”. The subacute toxicity findings entry in data set [5] (oral 1.8, 3.6-7.2 and 6.9-18.0 mg/kg/day, 3 months) is given as “Dose-related emesis, diarrhea, decreased food consumption”. In addition, the “activity of natural killer cells” value with natural killer cells (high concentrations, 1.0 - 2.5 µg auranofin/mL) is listed as “inhibited”; with natural killer cells (low concentrations, 0.125 - 0.5 µg auranofin/mL), “stimulated”. Moreover, the “murine antibody production against SRBC” value in [6] is “inconsistent inhibition”. In addition, in data set [7], the antidiuretic effect entry is on record as “slight antidiuretic effect”.
